Test results as given in PubChem BioAssay AID2060501 (Molecular Pharmacology Branch, DTP, NCI, 2025).

Test system: 282377-053-R-J1-PDC complex spheroids, viability
Test: Anticancer human tumor 282377-053-R-J1-PDC patient-derived colon adenocarcinoma cell line growth inhibition [GQUAD]
Settings: for IC50: curve of first compound; for viability, T/C: stronger effect = lower value
In short: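 Tumor cells were grown as complex spheroids with HUVEC endothelial cells and mesenchymal stem cells as stroma. G-quadruplex stabilizers were combined with targeted agents over half-log dilutions from near the clinical Cmax, or from 10 microM.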

[1] = second compound 0.0316 µM, first compound 0.0316 µM
[2] = second compound 0.0316 µM, first compound 0.1 µM
[3] = second compound 0.0316 µM, first compound 0.316 µM
[4] = second compound 0.0316 µM, first compound 1 µM
[5] = second compound 0.0316 µM, first compound 3.16 µM
[6] = second compound 0.0316 µM, first compound 10 µM
[7] = second compound 0.1 µM, first compound 0.0316 µM
[8] = second compound 0.1 µM, first compound 0.1 µM
[9] = second compound 0.1 µM, first compound 0.316 µM
[10] = second compound 0.1 µM, first compound 1 µM
[11] = second compound 0.1 µM, first compound 3.16 µM
[12] = second compound 0.1 µM, first compound 10 µM
[13] = second compound 0.316 µM, first compound 0.0316 µM
[14] = second compound 0.316 µM, first compound 0.1 µM
[15] = second compound 0.316 µM, first compound 0.316 µM
[16] = second compound 0.316 µM, first compound 1 µM
[17] = second compound 0.316 µM, first compound 3.16 µM
[18] = second compound 0.316 µM, first compound 10 µM
[19] = second compound 1 µM, first compound 0.0316 µM
[20] = second compound 1 µM, first compound 0.1 µM
[21] = second compound 1 µM, first compound 0.316 µM
[22] = second compound 1 µM, first compound 1 µM
[23] = second compound 1 µM, first compound 3.16 µM
[24] = second compound 1 µM, first compound 10 µM
[25] = second compound 3.16 µM, first compound 0.0316 µM
[26] = second compound 3.16 µM, first compound 0.1 µM
[27] = second compound 3.16 µM, first compound 0.316 µM
[28] = second compound 3.16 µM, first compound 1 µM
[29] = second compound 3.16 µM, first compound 3.16 µM
[30] = second compound 3.16 µM, first compound 10 µM
[31] = second compound 10 µM, first compound 0.0316 µM
[32] = second compound 10 µM, first compound 0.1 µM
[33] = second compound 10 µM, first compound 0.316 µM
[34] = second compound 10 µM, first compound 1 µM
[35] = second compound 10 µM, first compound 3.16 µM
[36] = second compound 10 µM, first compound 10 µM
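Also: spheroids exposed to compounds for 7 days before readout.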
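For viability, T/C in this document: percent of vehicle DMSO control viability with 100% = untreated-like growth.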

## Cc1cccc(N(C)C(=O)C2C(O)CCN2c2nc(C)cc(C(F)(F)F)c2C#N)c1 (stereo unspecified) + CN(C)c1ccc(Nc2c3ccc(NC(=O)CCN4CCCC4)cc3nc3cc(NC(=O)CCN4CCCC4)ccc23)cc1
Second compound 0.0316 µM
  IC50: > 10000 nM
Second compound 0.1 µM
  IC50: > 10000 nM
Second compound 0.316 µM
  IC50: > 10000 nM
Second compound 1 µM
  IC50: > 10000 nM
Second compound 3.16 µM
  IC50: > 10000 nM
Second compound 10 µM
  IC50: > 10000 nM
[1]
  viability, T/C: 110%
[2]
  viability, T/C: 104%
[3]
  viability, T/C: 93.3%
[4]
  viability, T/C: 98.7%
[5]
  viability, T/C: 78.2%
[6]
  viability, T/C: 104%
[7]
  viability, T/C: 105%
[8]
  viability, T/C: 96.9%
[9]
  viability, T/C: 103%
[10]
  viability, T/C: 93.8%
[11]
  viability, T/C: 96.3%
[12]
  viability, T/C: 82.3%
[13]
  viability, T/C: 101%
[14]
  viability, T/C: 103%
[15]
  viability, T/C: 84.5%
[16]
  viability, T/C: 106%
[17]
  viability, T/C: 90.2%
[18]
  viability, T/C: 63.8%
[19]
  viability, T/C: 100%
[20]
  viability, T/C: 87.5%
[21]
  viability, T/C: 90.5%
[22]
  viability, T/C: 90.1%
[23]
  viability, T/C: 94.6%
[24]
  viability, T/C: 88.1%
[25]
  viability, T/C: 94.2%
[26]
  viability, T/C: 96.8%
[27]
  viability, T/C: 96.7%
[28]
  viability, T/C: 94.5%
[29]
  viability, T/C: 128%
[30]
  viability, T/C: 109%
[31]
  viability, T/C: 91.8%
[32]
  viability, T/C: 97%
[33]
  viability, T/C: 110%
[34]
  viability, T/C: 105%
[35]
  viability, T/C: 122%
[36]
  viability, T/C: 80%

## Cn1ncnc1[C@H]1c2n[nH]c(=O)c3cc(F)cc(c23)N[C@@H]1c1ccc(F)cc1 + CN(C)c1ccc(Nc2c3ccc(NC(=O)CCN4CCCC4)cc3nc3cc(NC(=O)CCN4CCCC4)ccc23)cc1
Second compound 0.0316 µM
  IC50: > 316 nM
Second compound 0.1 µM
  IC50: > 316 nM
Second compound 0.316 µM
  IC50: > 316 nM
Second compound 1 µM
  IC50: > 316 nM
Second compound 3.16 µM
  IC50: > 316 nM
Second compound 10 µM
  IC50: > 316 nM
Second compound 0.0316 µM, first compound 0.000999 µM
  viability, T/C: 96.8%
Second compound 0.0316 µM, first compound 0.00316 µM
  viability, T/C: 92.6%
Second compound 0.0316 µM, first compound 0.00999 µM
  viability, T/C: 101%
[1]
  viability, T/C: 104%
Second compound 0.0316 µM, first compound 0.0999 µM
  viability, T/C: 112%
[3]
  viability, T/C: 110%
Second compound 0.1 µM, first compound 0.000999 µM
  viability, T/C: 127%
Second compound 0.1 µM, first compound 0.00316 µM
  viability, T/C: 82.7%
Second compound 0.1 µM, first compound 0.00999 µM
  viability, T/C: 88.7%
[7]
  viability, T/C: 105%
Second compound 0.1 µM, first compound 0.0999 µM
  viability, T/C: 101%
[9]
  viability, T/C: 98.8%
Second compound 0.316 µM, first compound 0.000999 µM
  viability, T/C: 109%
Second compound 0.316 µM, first compound 0.00316 µM
  viability, T/C: 77.7%
Second compound 0.316 µM, first compound 0.00999 µM
  viability, T/C: 78.9%
[13]
  viability, T/C: 89.3%
Second compound 0.316 µM, first compound 0.0999 µM
  viability, T/C: 94.3%
[15]
  viability, T/C: 83.3%
Second compound 1 µM, first compound 0.000999 µM
  viability, T/C: 109%
Second compound 1 µM, first compound 0.00316 µM
  viability, T/C: 108%
Second compound 1 µM, first compound 0.00999 µM
  viability, T/C: 100%
[19]
  viability, T/C: 94.9%
Second compound 1 µM, first compound 0.0999 µM
  viability, T/C: 107%
[21]
  viability, T/C: 89.1%
Second compound 3.16 µM, first compound 0.000999 µM
  viability, T/C: 85.5%
Second compound 3.16 µM, first compound 0.00316 µM
  viability, T/C: 81%
Second compound 3.16 µM, first compound 0.00999 µM
  viability, T/C: 101%
[25]
  viability, T/C: 90.8%
Second compound 3.16 µM, first compound 0.0999 µM
  viability, T/C: 92.8%
[27]
  viability, T/C: 102%
Second compound 10 µM, first compound 0.000999 µM
  viability, T/C: 81.4%
Second compound 10 µM, first compound 0.00316 µM
  viability, T/C: 84.8%
Second compound 10 µM, first compound 0.00999 µM
  viability, T/C: 91.6%
[31]
  viability, T/C: 106%
Second compound 10 µM, first compound 0.0999 µM
  viability, T/C: 101%
[33]
  viability, T/C: 101%

## O=C(NO)c1cnc(N2CCN(S(=O)(=O)c3ccc4ccccc4c3)CC2)nc1 + Cc1cnc(CNC(=O)c2c(=O)c3ccc(N4CCCN(C)CC4)nc3n3c2sc2ccccc23)cn1
Second compound 0.0316 µM
  IC50: 360 nM
Second compound 0.1 µM
  IC50: 406 nM
Second compound 0.316 µM
  IC50: 189 nM
Second compound 1 µM
  IC50: 82.3 nM
Second compound 3.16 µM
  IC50: < 31.6 nM
Second compound 10 µM
  IC50: < 31.6 nM
[1]
  viability, T/C: 98.6%
[2]
  viability, T/C: 78.5%
[3]
  viability, T/C: 57.9%
[4]
  viability, T/C: 2.29%
[5]
  viability, T/C: 0.07%
[6]
  viability, T/C: 0.11%
[7]
  viability, T/C: 99.3%
[8]
  viability, T/C: 88%
[9]
  viability, T/C: 63.5%
[10]
  viability, T/C: 1.62%
[11]
  viability, T/C: 0.05%
[12]
  viability, T/C: 0.11%
[13]
  viability, T/C: 84.3%
[14]
  viability, T/C: 64.7%
[15]
  viability, T/C: 39.2%
[16]
  viability, T/C: 1.28%
[17]
  viability, T/C: 0.04%
[18]
  viability, T/C: 0.08%
[19]
  viability, T/C: 55.3%
[20]
  viability, T/C: 46.6%
[21]
  viability, T/C: 27.1%
[22]
  viability, T/C: 0.1%
[23]
  viability, T/C: 0.05%
[24]
  viability, T/C: 0.09%
[25]
  viability, T/C: 41%
[26]
  viability, T/C: 53.3%
[27]
  viability, T/C: 22.9%
[28]
  viability, T/C: 0.12%
[29]
  viability, T/C: 0.1%
[30]
  viability, T/C: 0.15%
[31]
  viability, T/C: 36.9%
[32]
  viability, T/C: 9.96%
[33]
  viability, T/C: 0.28%
[34]
  viability, T/C: 0.24%
[35]
  viability, T/C: 0.17%
[36]
  viability, T/C: 0.2%
